# Experimental data published in patent US8993577B2, “Cyclopropyl amide derivatives” (Astrazeneca AB, priority 2009, dated 2015).
# Molecular target: T1, human Histamine H3 receptor (hH3R) (Homo sapiens, UniProt Q9Y5N1)
# T1 construct: expressed in transfected cells; host or cells: CHO (Chinese Hamster Ovary) cells; membranes
# Assay: GTPγS binding assay, antagonist activity in membranes of CHO cells expressing hH3R
# Type: biochemical
# Conditions: membranes from CHO cells transfected with hH3R; (R)-α-methyl histamine 30 nM; [35S]GTPγS 0.2 nM
# Description: At least one compound of at least one formula described herein including the compounds described in the Examples hereof, when tested in at least one in vitro assay as substantially described below is active towards H3 receptors. Particularly, at least one compound described herein is an effective H3 receptor ligand. The in vitro activity may be related to in vivo activity but may not be linearly correlated with binding affinity. In the in vitro assay, a compound can be tested for its activity toward H3 receptors and IC50 obtained to determine the activity for a particular compound toward the H3 receptor.
# Guanosine 5′-O-(3-[^35S]thio)triphosphate [GTPγS] Binding Assay
# A GTPγS binding assay can be used to investigate antagonist properties of compounds in CHO cells (Chinese Hamster Ovary) transfected with human Histamine H3 receptor (hH3R). Membranes from CHO cells expressing hH3R (10 μg/well) are diluted in GTPγS assay buffer (20 mM Hepes, 10 mM MgCl2, 100 mM NaCl, pH 7.4) and preincubated with saponine (3 μg/ml), GDP (10 μM) and PVT-WGA SPA beads (125 μg/well) (Amersham) for 30 minutes. To determine antagonist activity, (R)-α-methyl histamine (30 nM) is added in 96 well SPA plate with [^35S]GTPγS (0.2 nM) and various concentration of H3R antagonists. The GTPγS binding assay is started with addition of the mixture membrane/saponine/GDP and incubated for 90 minutes at room temperature. The amount of bound [^35S]GTPγS is determined by using the MicroBeta Trilux counter (PerkinElmer). The percentage of [^35S]GTPγS bound in each sample is calculated as a percentage of that bound control sample incubated in absence of H3 antagonist. Duplicate determinations are obtained for each concentration, and the data are analyzed using ExcelFit4 to obtain the IC50.
# Set forth in Table 1 hereinbelow for the Example 1-34 compounds are IC50 values that were generated in accordance with the GTPγS Binding Assay as essentially described hereinabove.
# T1 sequence (Q9Y5N1 whole entry): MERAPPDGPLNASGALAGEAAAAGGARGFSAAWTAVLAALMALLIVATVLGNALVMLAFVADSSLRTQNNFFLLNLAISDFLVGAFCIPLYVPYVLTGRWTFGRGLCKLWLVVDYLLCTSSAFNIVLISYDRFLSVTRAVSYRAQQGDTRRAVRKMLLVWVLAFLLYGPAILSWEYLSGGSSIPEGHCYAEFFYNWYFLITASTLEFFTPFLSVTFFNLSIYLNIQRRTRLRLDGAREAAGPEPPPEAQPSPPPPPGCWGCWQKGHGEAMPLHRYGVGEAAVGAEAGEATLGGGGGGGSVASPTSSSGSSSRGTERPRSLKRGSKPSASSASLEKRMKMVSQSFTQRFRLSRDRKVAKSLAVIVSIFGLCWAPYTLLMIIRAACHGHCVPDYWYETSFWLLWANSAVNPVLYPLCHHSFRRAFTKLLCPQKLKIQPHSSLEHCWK
row,IC50,Compound
1,> 1110 nM,"CC1(C)CN(C2CCC2)CCN1C(=O)[C@H]1C[C@@H]1c1ccc(C(N)=O)cc1 (racemic) [Example 23, 4-(trans-2-(4-cyclobutyl-2,2-dimethylpiperazine-1-carbonyl)cyclopropyl)benzamide, enantiomeric mixture]"
2,6.96 nM,"3-((trans)-2-((S)-4-cyclobutyl-2-methylpiperazine-1-carbonyl)cyclopropyl)benzamide, isomer 1 [Example 31]"
3,1270 nM,"4-((trans)-2-((S)-4-cyclobutyl-3-methylpiperazine-1-carbonyl)cyclopropyl)benzamide, isomer 2 [Example 19]"
4,1010 nM,"4-((trans)-2-((R)-4-cyclobutyl-3-methylpiperazine-1-carbonyl)cyclopropyl)benzamide, isomer 2 [Example 22]"
5,8.74 nM,"C[C@@H]1CN(C(=O)[C@H]2C[C@@H]2c2ccc(C(N)=O)cc2)CCN1C1CCC1 (mixture of isomers) [Example 20, 4-(trans-2-((R)-4-cyclobutyl-3-methylpiperazine-1-carbonyl)cyclopropyl)benzamide, diastereomeric mixture]"
6,6.83 nM,"4-((trans)-2-((R)-4-cyclobutyl-3-methylpiperazine-1-carbonyl)cyclopropyl)benzamide, isomer 1 [Example 21]"
7,8.82 nM,"C[C@@H]1CN(C2CCC2)CCN1C(=O)[C@H]1C[C@@H]1c1ccc(C(N)=O)cc1 (mixture of isomers) [Example 7, 4-(trans-2-((R)-4-cyclobutyl-2-methylpiperazine-1-carbonyl)cyclopropyl)benzamide, diastereomeric mixture]"
8,8.54 nM,"4-(trans-2-((S)-4-isopropyl-2-methylpiperazine-1-carbonyl)cyclopropyl)benzamide, isomer 1 [Example 5]"
9,12 nM,"4-(trans-2-(4-cyclobutyl-3,3-dimethylpiperazine-1-carbonyl)cyclopropyl)benzamide, enantiomer 1 [Example 25]"
10,> 1110 nM,"CC[C@H]1CN(C2CCC2)CCN1C(=O)[C@H]1C[C@@H]1c1ccc(C(N)=O)cc1 (mixture of isomers) [Example 16, 4-(trans-2-((S)-4-cyclobutyl-2-ethylpiperazine-1-carbonyl)cyclopropyl)benzamide, diastereomeric mixture]"
11,5.28 nM,"3-((trans)-2-((R)-4-cyclobutyl-2-methylpiperazine-1-carbonyl)cyclopropyl)benzamide, isomer 1 [Example 28]"
12,15.9 nM,"CC1(C)CN(C(=O)[C@H]2C[C@@H]2c2ccc(C(N)=O)cc2)CCN1C1CCC1 (racemic) [Example 24, 4-(trans-2-(4-cyclobutyl-3,3-dimethylpiperazine-1-carbonyl)cyclopropyl)benzamide, enantiomeric mixture]"
13,29.1 nM,"CC[C@@H]1CN(C2CCC2)CCN1C(=O)[C@H]1C[C@@H]1c1ccc(C(N)=O)cc1 (mixture of isomers) [Example 13, 4-(trans-2-((R)-4-cyclobutyl-2-ethylpiperazine-1-carbonyl)cyclopropyl)benzamide, diastereomeric mixture]"
14,13.5 nM,"CC(C)N1CCN(C(=O)[C@H]2C[C@@H]2c2ccc(C(N)=O)cc2)[C@@H](C)C1 (mixture of isomers) [Example 4, 4-(trans-2-((S)-4-isopropyl-2-methylpiperazine-1-carbonyl)cyclopropyl)benzamide, diastereomeric mixture]"
15,576 nM,"3-((trans)-2-((R)-4-cyclobutyl-2-methylpiperazine-1-carbonyl)cyclopropyl)benzamide, isomer 2 [Example 29]"
16,140 nM,"4-(trans-2-((R)-4-cyclobutyl-2-ethylpiperazine-1-carbonyl)cyclopropyl)benzamide, isomer 2 [Example 15]"
17,5.66 nM,"4-(trans-2-((R)-4-isopropyl-2-methylpiperazine-1-carbonyl)cyclopropyl)benzamide, isomer 1 [Example 2]"

row,IC50,Compound
1,12 nM,"C[C@@H]1CN(C2CCC2)CCN1C(=O)[C@H]1C[C@@H]1c1cccc(C(N)=O)c1 (mixture of isomers) [Example 27, 3-(trans-2-((R)-4-cyclobutyl-2-methylpiperazine-1-carbonyl)cyclopropyl)benzamide, diastereomeric mixture]"
2,15.3 nM,"4-(trans-2-((R)-4-cyclobutyl-2-ethylpiperazine-1-carbonyl)cyclopropyl)benzamide, isomer 1 [Example 14]"
3,8.06 nM,"C[C@H]1CN(C2CCC2)CCN1C(=O)[C@H]1C[C@@H]1c1ccc(C(N)=O)cc1 (mixture of isomers) [Example 10, 4-(trans-2-((S)-4-cyclobutyl-2-methylpiperazine-1-carbonyl)cyclopropyl)benzamide, diastereomeric mixture]"
4,326 nM,"4-(trans-2-((R)-4-isopropyl-2-methylpiperazine-1-carbonyl)cyclopropyl)benzamide, isomer 2 [Example 3]"
5,16.3 nM,"C[C@H]1CN(C2CCC2)CCN1C(=O)[C@H]1C[C@@H]1c1cccc(C(N)=O)c1 (mixture of isomers) [Example 30, 3-(trans-2-((S)-4-cyclobutyl-2-methylpiperazine-1-carbonyl)cyclopropyl)benzamide, diastereomeric mixture]"
6,1320 nM,"4-((trans)-2-((S)-4-cyclobutyl-2-methylpiperazine-1-carbonyl)cyclopropyl)benzamide, isomer 2 [Example 12]"
7,> 1110 nM,"4-(trans-2-(4-cyclobutyl-3,3-dimethylpiperazine-1-carbonyl)cyclopropyl)benzamide, enantiomer 2 [Example 26]"
8,121 nM,"4-((trans)-2-((R)-4-cyclobutyl-2-methylpiperazine-1-carbonyl)cyclopropyl)benzamide, isomer 2 [Example 9]"
9,5.98 nM,"4-((trans)-2-((S)-4-cyclobutyl-3-methylpiperazine-1-carbonyl)cyclopropyl)benzamide, isomer 1 [Example 18]"
10,4.94 nM,"C[C@@H]1CN(C2CCC2)CCN1C(=O)[C@H]1C[C@@H]1c1ccc(C(N)=O)cc1 [Example 8, 4-((trans)-2-((R)-4-cyclobutyl-2-methylpiperazine-1-carbonyl)cyclopropyl)benzamide, isomer 1]"
11,> 1110 nM,"3-((trans)-2-((S)-4-cyclobutyl-2-methylpiperazine-1-carbonyl)cyclopropyl)benzamide, isomer 2 [Example 32]"
12,14.2 nM,"C[C@H]1CN(C(=O)[C@H]2C[C@@H]2c2ccc(C(N)=O)cc2)CCN1C1CCC1 (mixture of isomers) [Example 17, 4-(trans-2-((S)-4-cyclobutyl-3-methylpiperazine-1-carbonyl)cyclopropyl)benzamide, diastereomeric mixture]"
13,41 nM,"C[C@H]1CN(C(=O)[C@H]2C[C@@H]2c2cccc(C(N)=O)c2)CCN1C1CCC1 (mixture of isomers) [Example 33, 3-(trans-2-((S)-4-cyclobutyl-3-methylpiperazine-1-carbonyl)cyclopropyl)benzamide, diastereomeric mixture]"
14,51.8 nM,"C[C@@H]1CN(C(=O)[C@H]2C[C@@H]2c2cccc(C(N)=O)c2)CCN1C1CCC1 (mixture of isomers) [Example 34, 3-(trans-2-((R)-4-cyclobutyl-3-methylpiperazine-1-carbonyl)cyclopropyl)benzamide, diastereomeric mixture]"
15,5.77 nM,"4-((trans)-2-((S)-4-cyclobutyl-2-methylpiperazine-1-carbonyl)cyclopropyl)benzamide, isomer 1 [Example 11]"
16,7.48 nM,"CC(C)N1CCN(C(=O)[C@H]2C[C@@H]2c2ccc(C(N)=O)cc2)[C@H](C)C1 (mixture of isomers) [Example 1, 4-(trans-2-((R)-4-isopropyl-2-methylpiperazine-1-carbonyl)cyclopropyl)benzamide, diastereomeric Mixture]"

row,Compound,IC50
1,"4-(trans-2-((S)-4-isopropyl-2-methylpiperazine-1-carbonyl)cyclopropyl)benzamide, isomer 2 [Example 6]",> 1110 nM
